From patent US20140005163A1 (NOVARTIS AG, priority 2010, published 2014)

Tests used:
[1] = target: T1, PI3K delta (Homo sapiens, UniProt O00329); experiment: PI3K delta kinase assay (Kinase-Glo luminescence); format: biochemical
T1 construct: for the full-length p110-d subunit are generated and fused by overlapping PCR; p85(iSH2) fusion partner (see partner chain) (N); His tag (C); made in house; host or cells: baculovirus; Tn5 (Trichoplusia ni) or TiniPro insect cells
Procedure, shortened: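 Construct BV-1060, p85 iSH2–linker–full-length p110δ, His-tagged, at 10 nM, with 1 μM ATP and 10 μg/mL phosphatidylinositol in pH 7.5 Tris, 3 mM MgCl2, 50 mM NaCl, 0.05% CHAPS. Run 60 min at room temperature; remaining ATP read by Kinase-Glo luminescence; IC50 from 4-parameter logistic fit of 8 concentrations.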

[2] = test system: PKB Ser473 phosphorylation in Rat1-myr-HA-p110 alpha cells; experiment: Reverse protein array assay, PKB Ser473 phosphorylation in Rat1-myr-p110 alpha cells; format: cell-based; settings: 0.5 h, pAkt Ser473, 30 minutes compound incubation, read-out: p-PKB IC50
Procedure, shortened: (§1)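 Measured: PKB Ser473 phosphorylation by reverse protein array in Rat1 cells expressing myr-HA-p110 alpha, beta or delta, after 30 min compound treatment at 37 °C with 0.2% DMSO vehicle.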

[3] = test system: PKB Ser473 phosphorylation in Rat1-myr-HA-p110 beta cells; experiment: Reverse protein array assay, PKB Ser473 phosphorylation in Rat1-myr-p110 beta cells; format: cell-based; settings: 0.5 h, pAkt Ser473, 30 minutes incubation, read-out: p-PKB IC50
Procedure, shortened: as §1

[4] = test system: S6 Ribosomal Protein phosphorylation Ser235/236 in TSC1 null mouse embryo fibroblast (MEF) cells; experiment: Reverse protein array assay, S6 Ribosomal Protein phosphorylation Ser235/236 in TSC1 null MEF cells; format: cell-based; settings: 1 h, pS6 ribosomal protein Ser235/236, 60 minutes incubation, read-out: p-S6 IC50
Procedure, shortened: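 TSC1−/− MEFs, seeded and held ≥20 h at 37 °C/5% CO2, were exposed to 8-step serial compound dilutions (0.02% DMSO final; DMSO vehicle control) for 60 min at 37 °C. Cells were then lysed on ice for 10 min and lysates spotted onto reverse protein array chips.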

T1 sequence (O00329 with tags, fused parts or gaps limits assumed): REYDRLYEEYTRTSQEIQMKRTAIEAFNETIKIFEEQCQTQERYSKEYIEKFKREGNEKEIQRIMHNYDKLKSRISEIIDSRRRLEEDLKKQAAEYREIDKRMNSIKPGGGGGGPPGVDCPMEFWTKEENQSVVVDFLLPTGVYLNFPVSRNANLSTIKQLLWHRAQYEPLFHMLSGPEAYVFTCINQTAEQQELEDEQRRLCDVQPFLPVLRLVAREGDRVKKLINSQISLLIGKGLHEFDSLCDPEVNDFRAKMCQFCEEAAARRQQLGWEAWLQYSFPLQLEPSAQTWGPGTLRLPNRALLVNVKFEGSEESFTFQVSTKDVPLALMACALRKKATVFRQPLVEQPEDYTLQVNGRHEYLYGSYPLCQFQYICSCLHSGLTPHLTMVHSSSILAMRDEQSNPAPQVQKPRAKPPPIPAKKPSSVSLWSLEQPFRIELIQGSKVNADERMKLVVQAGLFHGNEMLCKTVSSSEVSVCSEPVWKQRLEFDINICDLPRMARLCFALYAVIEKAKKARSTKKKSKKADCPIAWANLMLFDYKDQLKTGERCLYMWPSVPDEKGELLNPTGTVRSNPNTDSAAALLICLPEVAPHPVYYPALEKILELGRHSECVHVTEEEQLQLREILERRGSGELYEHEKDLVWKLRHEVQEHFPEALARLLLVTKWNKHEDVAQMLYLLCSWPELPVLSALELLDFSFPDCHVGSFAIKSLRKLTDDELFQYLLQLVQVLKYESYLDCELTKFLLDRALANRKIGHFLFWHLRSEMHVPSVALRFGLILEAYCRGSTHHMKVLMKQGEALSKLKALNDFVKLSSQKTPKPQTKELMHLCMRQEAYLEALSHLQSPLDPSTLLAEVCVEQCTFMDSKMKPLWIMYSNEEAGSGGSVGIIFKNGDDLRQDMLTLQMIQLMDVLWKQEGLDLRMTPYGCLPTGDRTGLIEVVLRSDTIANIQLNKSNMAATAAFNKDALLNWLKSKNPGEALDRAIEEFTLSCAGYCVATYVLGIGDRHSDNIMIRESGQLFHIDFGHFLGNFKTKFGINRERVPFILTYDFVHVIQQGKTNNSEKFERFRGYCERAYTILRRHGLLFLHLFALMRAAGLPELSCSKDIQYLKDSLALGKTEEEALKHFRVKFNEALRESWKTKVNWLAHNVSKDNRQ

Row | Compound | IC50 [1] | IC50 [2] | IC50 [3] | IC50 [4]
1 | CNc1cncc(-c2ccc3ncc4c(c3c2)n(-c2cn(C(C)C)nc2C)c(=O)n4C)c1 [Example 180.2, 1-(1-Isopropyl-3-methyl-1H-pyrazol-4-yl)-3-methyl-8-(5-methylamino-pyridin-3-yl)-1,3-dihydro-imidazo[4,5-c]quinolin-2-one] | 6 nM | < 5 nM | 32 nM | 17 nM
2 | CCOc1cc(-c2ccc3ncc4c(c3c2)n(-c2cn(C)nc2C)c(=O)n4C)cnc1CC [Example 187, 1-(1,3-Dimethyl-1H-pyrazol-4-yl)-8-(5-ethoxy-6-ethyl-pyridin-3-yl)-3-methyl-1,3-dihydro-imidazo[4,5-c]quinolin-2-one] | 8 nM | 6 nM | 37 nM | 1.89 nM
3 | CCc1ncc(-c2ccc3ncc4c(c3c2)n(-c2cn(C)nc2C)c(=O)n4C)cc1O [Example 188, 1-(1,3-Dimethyl-1H-pyrazol-4-yl)-8-(6-ethyl-5-hydroxy-pyridin-3-yl)-3-methyl-1,3-dihydro-imidazo[4,5-c]quinolin-2-one] | 4 nM | 8 nM | 22 nM | 8.15 nM
4 | CCn1cc(-n2c(=O)n(C)c3cnc4ccc(-c5cnc(COC)c(OC(C)C)c5)cc4c32)c(C)n1 [Example 191.2, 1-(1-Ethyl-3-methyl-1H-pyrazol-4-yl)-8-(5-isopropoxy-6-methoxymethyl-pyridin-3-yl)-3-methyl-1,3-dihydro-imidazo[4,5-c]quinolin-2-one] | 11 nM | 27 nM | 58 nM | 5 nM
5 | Cc1nn(C)cc1-n1c(=O)n(C)c2cnc3ccc(-c4cnc(CO)c(OC(CF)CF)c4)cc3c21 [Example 192, 1-(1,3-Dimethyl-1H-pyrazol-4-yl)-8-[5-(2-fluoro-1-fluoromethyl-ethoxy)-6-hydroxymethyl-pyridin-3-yl]-3-methyl-1,3-dihydro-imidazo[4,5-c]quinolin-2-one] | 5 nM | 12 nM | 38 nM | 5 nM
6 | CCOCc1ncc(-c2ccc3ncc4c(c3c2)n(-c2cn(C)nc2C)c(=O)n4C)cc1OC [Example 196.2, 1-(1,3-Dimethyl-1H-pyrazol-4-yl)-8-(6-ethoxymethyl-5-methoxy-pyridin-3-yl)-3-methyl-1,3-dihydro-imidazo[4,5-c]quinolin-2-one] | 160 nM | 129 nM | 108 nM | 125 nM
7 | CCOc1cc(-c2ccc3ncc4c(c3c2)n(-c2cn(C(C)C)nc2C)c(=O)n4C)cnc1COC [Example 197.2, 8-(5-Ethoxy-6-methoxymethyl-pyridin-3-yl)-1-(1-isopropyl-3-methyl-1H-pyrazol-4-yl)-3-methyl-1,3-dihydro-imidazo[4,5-c]quinolin-2-one] | 24 nM | 77 nM | 77 nM | 7 nM
8 | COCc1ccc(-c2ccc3ncc4c(c3c2)n(-c2cn(C)nc2Cl)c(=O)n4C)cn1 [Example 203, 1-(3-Chloro-1-methyl-1H-pyrazol-4-yl)-8-(6-methoxymethyl-pyridin-3-yl)-3-methyl-1,3-dihydro-imidazo[4,5-c]quinolin-2-one] | 8 nM | 10 nM | 13 nM | 22 nM
9 | CCNc1ncc(-c2ccc3ncc4c(c3c2)n(-c2cn(C)nc2C)c(=O)n4C)cc1COC [Example 206.1, 1-(1,3-Dimethyl-1H-pyrazol-4-yl)-8-(6-ethylamino-5-methoxymethyl-pyridin-3-yl)-3-methyl-1,3-dihydro-imidazo[4,5-c]quinolin-2-one] | 7 nM | 11 nM | 223 nM | 3 nM
10 | CCNc1ncc(-c2ccc3ncc4c(c3c2)n(-c2c(C)nn(C)c2C)c(=O)n4C)cc1COC [Example 206.2, 8-(6-Ethylamino-5-methoxymethyl-pyridin-3-yl)-3-methyl-1-(1,3,5-trimethyl-1H-pyrazol-4-yl)-1,3-dihydro-imidazo[4,5-c]quinolin-2-one] | 57 nM | 126 nM | 959 nM | 77 nM
11 | CCc1ncc(-c2ccc3ncc4c(c3c2)n(-c2cn(C)nc2C)c(=O)n4C)cc1N [Example 208, 8-(5-Amino-6-ethyl-pyridin-3-yl)-1-(1,3-dimethyl-1H-pyrazol-4-yl)-3-methyl-1,3-dihydro-imidazo[4,5-c]quinolin-2-one] | 6 nM | 20 nM | 17 nM | 5 nM
12 | CO[C@@H]1CCN(c2ccc(-c3ccc4ncc5c(c4c3)n(-c3cn(C)nc3C)c(=O)n5C)cn2)C1 [Example 213.1, 1-(1,3-Dimethyl-1H-pyrazol-4-yl)-8-[6-((R)-3-methoxy-pyrrolidin-1-yl)-pyridin-3-yl]-3-methyl-1,3-dihydro-imidazo[4,5-c]quinolin-2-one] | 691 nM | 125 nM | 342 nM | 49.4 nM
13 | Cn1cc(-n2c(=O)n(C)c3cnc4ccc(-c5cncc(C(C)(C)C#N)c5)cc4c32)c(Cl)n1 [Example 220.3, 2-{5-[1-(3-Chloro-1-methyl-1H-pyrazol-4-yl)-3-methyl-2-oxo-2,3-dihydro-1H-imidazo[4,5-c]quinolin-8-yl]-pyridin-3-yl}-2-methyl-propionitrile] | 3 nM | 6 nM | 6 nM | < 0.5 nM
14 | Cc1nn(C)cc1-n1c(=O)n(C)c2cnc3ccc(-c4cncc(C5(C#N)CCC5)c4)cc3c21 [Example 221.1, 1-{5-[1-(1,3-Dimethyl-1H-pyrazol-4-yl)-3-methyl-2-oxo-2,3-dihydro-1H-imidazo[4,5-c]quinolin-8-yl]-pyridin-3-yl}-cyclobutanecarbonitrile] | 6 nM | 14 nM | 20 nM | 1 nM
15 | CCN1C(=O)OCc2ncc(-c3ccc4ncc5c(c4c3)n(-c3cn(C)nc3C)c(=O)n5C)cc21 [Example 237, 1-(1,3-Dimethyl-1H-pyrazol-4-yl)-8-(1-ethyl-2-oxo-1,4-dihydro-2H-pyrido[3,2-d][1,3]oxazin-7-yl)-3-methyl-1,3-dihydro-imidazo[4,5-c]quinolin-2-one] | 9 nM | 18 nM | 55 nM | 6 nM
16 | CCn1c(=O)n(-c2cn(C)nc2C)c2c3cc(-c4cncc(N)c4)ccc3ncc21 [Example 245, 8-(5-Amino-pyridin-3-yl)-1-(1,3-dimethyl-1H-pyrazol-4-yl)-3-ethyl-1,3-dihydro-imidazo[4,5-c]quinolin-2-one] | 30 nM | 730 nM | 386 nM | 43 nM
17 | Cc1nn(CC(=O)N2CCC2)cc1-n1c(=O)n(C)c2cnc3ccc(-c4cnc(N5CCCC5)nc4)cc3c21 [Example 247.2, 1-[1-(2-Azetidin-1-yl-2-oxo-ethyl)-3-methyl-1H-pyrazol-4-yl]-3-methyl-8-(2-pyrrolidin-1-yl-pyrimidin-5-yl)-1,3-dihydro-imidazo[4,5-c]quinolin-2-one] | 794 nM | 45 nM | 87 nM | 9 nM
